Measurements from paper PMC12138128 (Acta Pharmaceutica Sinica. B, 2025).

What was measured:
U87 cells = assay: CCK-8 cell proliferation assay, U87; assay type: cell-based; conditions: Homo sapiens, U-87 MG, 72 h, CCK-8, 72 h; read-out: IC50, U87 proliferation inhibition
Protocol: The effects on cell proliferation were measured using a CCK-8 assay kit. A total of 3 × 10^3 cells were seeded per well in 96-well plates and incubated for 24, 48, or 72 h after drug administration. After 10 μL of CCK-8 solution was added to each well and incubated at 37 °C for 1–2 h, the absorbance at OD450 was read with an enzyme marker. The data were recorded and analyzed by GraphPad Prism software (version 8.0.2). For the cell growth assay, 2 × 10^3 cells were seeded per well in 96-well plates (n = 5). Ten microlitres of CCK-8 reagent was added at a fixed time every day, and the OD450 was read after 2 h. The statistical data were analyzed, and cell growth curves were plotted after a continuous period of 7 days.

[1] = cited from earlier work
NAD^+ in U87 cells = assay: Measurement of NAD+ levels in U87 cells; assay type: cell-based, human; conditions: 10 nmol/L, compared with PF403
From the text: NAD^+ is a coenzyme found in all cells and consists of both NAD^+ (oxidized) and NADH (reduced) forms. NAD^+ can be used to transfer electrons during redox reactions and as a substrate used by many enzymes to participate in intracellular reactions. We used an NAD^+/NADH assay kit (Beyotime, S0175, Shanghai, China) based on the WST-8 method to determine the NAD^+/NADH content. Cells in 6-well plates were collected and lysed with NAD^+/NADH extract on ice, and the supernatant was used as the sample to be tested. A control solution with a gradient concentration of NADH was prepared with a 10 mmol/L NADH standard. The supernatant from the sample was first aspirated and used to determine the total amount of NAD^+ and NADH. Subsequently, the sample was heated at 60 °C for 30 min to remove the NAD^+, after which the supernatant was collected to determine the NADH concentration. Ethanol dehydrogenase was added to each well, and the plate was incubated at 37 °C in the dark for 10 min. Then, 10 μL of chromogenic solution was added, and the plate was incubated for 30 min. Afterward, the absorbance at 450 nm was measured, and the content was calculated by comparison with the standard curve. The content of NAD^+ was calculated by subtracting the content of NADH from the total amount.

U87 xenograft = U87 xenograft model in nude mice; assay type: in vivo, nude mice (BALB/c-nude); conditions: for inhibitory effect in terms of tumor weight / inhibitory effect based on tumor volume: i.g.; for inhibitory effect in terms of tumor weight: 14th day; for inhibitory effect based on tumor volume: daily for 14 days
Protocol: (§1) Six-week-old female athymic nude mice (BALB/c-nude) were obtained from GemPharmatech (Beijing, China). U87 cells (3 × 10^6 cells per animal) were injected into the rear right armpit of nude mice to generate xenograft tumors. Seven to ten days after injection, the tumors were visible to the naked eye (approximately 100 mm^3), and the mice were randomized into five groups (12 mice per group). The PF403 treatment groups were administered different doses of PF403 once daily via intragastric gavage (low dose, 3 mg/kg; median dose, 6 mg/kg; high dose, 12 mg/kg). The positive control drug used was temozolomide (50 mg/kg, i.g., Days 1–5), the first line of glioma treatment, while the control group was treated with 0.5% CMC-Na solution as a control. To validate the NAMPT knockdown group, we established the following groups: a control group (vehicle control, i.g., once daily, n = 12), a shNAMPT-2 knockdown group (vehicle control, i.g., once daily, n = 12), and a shNAMPT-2 knockdown group treated with CAT3 (6 mg/kg, i.g., once daily, n = 12). The body weights of the nude mice were recorded every two days, and the tumor weights were recorded on the 14th day after the mice were sacrificed.
(§2) IHC was performed following standard protocols. Briefly, the standard protocol for Ki67 immunohistochemical staining involved tissue preparation, deparaffinization and rehydration, antigen retrieval, blocking, primary and secondary antibody incubations, visualization with DAB, counterstaining, mounting, microscopic examination, and image acquisition. To assess proliferation rates in tissue samples, the area of Ki67 expression was used for comparison in each group.

shNAMPT-2 U87 xenograft = assay: shNAMPT-2 U87 (NAMPT-knockdown) xenograft model; assay type: in vivo, nude mice (BALB/c-nude)
Protocol: as §1, §2

[2] = system: shNAMPT-2 U87 orthotopic glioma; assay: Orthotopic glioma model with shNAMPT-2 U87 cells, MRI; assay type: in vivo, nude mice (BALB/c-nude)
Protocol: For the orthotopic glioma model, six-week-old female athymic nude mice (BALB/c-nude) were obtained from GemPharmatech (Beijing, China). Anesthetize nude mice with tribromoethanol at a concentration of 20 mg/mL and a dosage of 0.2 mL/10 g body weight. U87 cells (shNAMPT-2, 5 × 10^5 cells) suspended in 5 μL PBS buffer were injected intracranially into nude mice using stereotaxic restraint. The location was bregma +1.0 mm, right lateral 2.0 mm, profundity 3.5 mm, and return to 3.0 mm. After 3 days, 6 mg/kg of CAT3 was orally administered once daily for 11 days. Intracranial tumors were viewed using MRI. The body weights of mice were monitored once every 2 or 3 days. The feeding and handling of animals have been approved by the Animal Care & Welfare Committee Institute of Materia Medica, CAMS & PUMC (Approval numbers: 00008485, 00008487, 00008963).
After 11 days of treatment, anatomical images of the intracranial tumor were acquired using an MRI scanner (PharmaScan 70/16 US, Bruker, Switzerland) on the nude mice. The parameters used in the scans to optimize gray/white matter contrast were as follows: a T2_TurboRARE, with TR/TE = 2795/35, 4 averages, 22 × 22 field-of-view, and 0.5 mm slice thickness. The scanning of all brains was completed in 25 sessions. The tumor volume was calculated using the sum of the areas in all images multiplied by the thickness of each slice (0.5 mm).

U87 orthotopic glioma = system: U87 orthotopic glioma; design: method as in PMID 27495899; conditions: 6 mg/kg, 11 days of continuous treatment; cited from earlier work

Molecule: COc1ccc2c3c(c4cc(OC)c(OC)cc4c2c1)CN1CCC[C@H]1C3 [CAT, (+)-Deoxytylophorinine]
- IC50 (U87 cells): 23.4 nM
- blood–brain barrier penetration [1]: effectively cross the blood–brain barrier

Molecule: O=C(/C=C/c1cccnc1)NCCCCC1CCN(C(=O)c2ccccc2)CC1 [FK866, (E)-Daporinad]
- inhibitory effect on intracellular NAD^+ content (NAD^+ in U87 cells): better inhibitory effect on intracellular NAD^+ content than PF403

Molecule: (13aS)-3-pivaloyloxyl-6,7-dimethoxyphenanthro[9,10-b] indolizidine [CAT3]
- inhibitory effect in terms of tumor weight (U87 xenograft; 6 mg/kg): 55.37%
- inhibitory effect based on tumor volume (U87 xenograft; 6 mg/kg): ~58.41%
- inhibitory effect in terms of tumor weight (U87 xenograft; 12 mg/kg): 63.18%
- inhibitory effect based on tumor volume (U87 xenograft; 12 mg/kg): ~67.59%
- expression of Ki67 in tumor (IHC) (U87 xenograft; after treatment, U87 xenograft): reduced
- body weight of the nude mice (U87 xenograft; due to gastrointestinal reaction): decreased slightly in the first week and then gradually recovered
- inhibitory effect on cell proliferation by tumor volume or weight (shNAMPT-2 U87 xenograft; 6 mg/kg, i.g., daily for 14 days): no significant inhibitory effect
- expression of Ki67 in tumor (IHC) (shNAMPT-2 U87 xenograft; effective dose (6 mg/kg), NAMPT-knockdown xenograft): not affected
- body weight (shNAMPT-2 U87 xenograft; over 14 days, gastrointestinal side effects): slight decrease in body weight
- body weight of nude mice ([2]; early and middle stages of treatment): slight decrease in the body weight
- NAMPT knockdown tumor volume (MRI) ([2]; treatment group, 6 mg/kg orally once daily for 11 days, n = 12): 24.05 ± 13.99 mm^3
- inhibitory effect, orthotopic glioma model (U87 orthotopic glioma): ~40%
